Experimental findings from ChEMBL document CHEMBL5291721, “A preclinical secondary pharmacology resource illuminates target-adverse drug reaction associations of marketed drugs” (Nat Commun, 2023) are described below.

Each structure is given as a SMILES string.

Some targets named below: D(1A) dopamine receptor (Homo sapiens, UniProt P21728); Mu-type opioid receptor (Homo sapiens, UniProt P35372); Histamine H3 receptor (Homo sapiens, UniProt Q9Y5N1).
For a further experiment, the target named is Prothrombin (Homo sapiens, UniProt P00734). The experiment is classed as functional.
Experiment [1] deals with T1, Alpha-2A adrenergic receptor (Homo sapiens, UniProt P08913).
T1 sequence (P08913 whole entry): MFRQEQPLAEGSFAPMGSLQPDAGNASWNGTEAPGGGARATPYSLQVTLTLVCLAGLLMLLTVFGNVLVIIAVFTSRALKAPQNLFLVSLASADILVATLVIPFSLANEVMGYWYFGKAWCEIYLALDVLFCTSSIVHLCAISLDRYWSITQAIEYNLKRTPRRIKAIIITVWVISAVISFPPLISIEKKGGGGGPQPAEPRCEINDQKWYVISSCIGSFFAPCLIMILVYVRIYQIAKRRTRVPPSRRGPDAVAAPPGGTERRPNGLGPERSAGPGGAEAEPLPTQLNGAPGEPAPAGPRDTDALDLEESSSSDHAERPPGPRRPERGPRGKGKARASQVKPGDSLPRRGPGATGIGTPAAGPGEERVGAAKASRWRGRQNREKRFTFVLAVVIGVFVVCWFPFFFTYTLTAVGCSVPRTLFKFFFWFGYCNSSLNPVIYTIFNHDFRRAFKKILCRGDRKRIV

Experiment [2] concerns the target cGMP-inhibited 3',5'-cyclic phosphodiesterase 3A (Homo sapiens, UniProt Q14432). The class given is functional.
The target of another experiment is Acetylcholinesterase (Homo sapiens, UniProt P22303). The experiment is classed as functional.
The target in experiment [3] is Prostaglandin G/H synthase 1 (Homo sapiens, UniProt P23219). The class given is functional.
For experiment [4], the target named is T2, Alpha-1A adrenergic receptor (Homo sapiens, UniProt P35348).
T2 sequence (P35348 whole entry): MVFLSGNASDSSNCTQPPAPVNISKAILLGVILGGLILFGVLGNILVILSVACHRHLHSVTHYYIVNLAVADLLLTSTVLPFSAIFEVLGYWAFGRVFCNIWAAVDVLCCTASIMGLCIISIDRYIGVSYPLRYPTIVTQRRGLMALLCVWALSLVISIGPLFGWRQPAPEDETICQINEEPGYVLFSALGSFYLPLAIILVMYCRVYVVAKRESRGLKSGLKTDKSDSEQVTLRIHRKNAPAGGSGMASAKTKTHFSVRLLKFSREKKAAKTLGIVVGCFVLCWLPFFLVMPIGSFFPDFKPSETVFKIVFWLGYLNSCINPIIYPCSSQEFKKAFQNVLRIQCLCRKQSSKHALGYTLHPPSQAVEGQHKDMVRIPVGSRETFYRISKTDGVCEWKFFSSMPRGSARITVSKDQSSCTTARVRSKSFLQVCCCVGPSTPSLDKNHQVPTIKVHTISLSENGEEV
The experiment is classed as functional, cell-based.

Experiment [5] deals with T3, Thromboxane A2 receptor (Homo sapiens, UniProt P21731).
T3 sequence (P21731 whole entry): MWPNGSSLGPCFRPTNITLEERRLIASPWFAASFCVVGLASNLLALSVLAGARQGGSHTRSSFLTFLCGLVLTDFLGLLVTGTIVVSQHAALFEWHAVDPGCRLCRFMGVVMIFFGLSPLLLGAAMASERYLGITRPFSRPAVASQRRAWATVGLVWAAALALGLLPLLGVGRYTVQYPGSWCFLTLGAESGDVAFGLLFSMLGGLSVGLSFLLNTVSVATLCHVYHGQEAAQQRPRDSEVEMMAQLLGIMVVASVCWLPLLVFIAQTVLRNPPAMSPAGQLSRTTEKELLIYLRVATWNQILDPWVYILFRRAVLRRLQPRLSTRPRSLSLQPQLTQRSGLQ
The class given is functional, cell-based.

The target of experiment [6] is Sodium-dependent serotonin transporter (Homo sapiens, UniProt P31645).
The target of experiment [7] is Voltage-gated inwardly rectifying potassium channel KCNH2 (Homo sapiens, UniProt Q12809). The experiment is classed as functional. Particulars: read-out: AC50.
The target of experiment [8] is Sodium-dependent dopamine transporter (Homo sapiens, UniProt Q01959).
Experiment [9] deals with T4, Muscarinic acetylcholine receptor M2 (Homo sapiens, UniProt P08172).
T4 sequence (P08172 whole entry): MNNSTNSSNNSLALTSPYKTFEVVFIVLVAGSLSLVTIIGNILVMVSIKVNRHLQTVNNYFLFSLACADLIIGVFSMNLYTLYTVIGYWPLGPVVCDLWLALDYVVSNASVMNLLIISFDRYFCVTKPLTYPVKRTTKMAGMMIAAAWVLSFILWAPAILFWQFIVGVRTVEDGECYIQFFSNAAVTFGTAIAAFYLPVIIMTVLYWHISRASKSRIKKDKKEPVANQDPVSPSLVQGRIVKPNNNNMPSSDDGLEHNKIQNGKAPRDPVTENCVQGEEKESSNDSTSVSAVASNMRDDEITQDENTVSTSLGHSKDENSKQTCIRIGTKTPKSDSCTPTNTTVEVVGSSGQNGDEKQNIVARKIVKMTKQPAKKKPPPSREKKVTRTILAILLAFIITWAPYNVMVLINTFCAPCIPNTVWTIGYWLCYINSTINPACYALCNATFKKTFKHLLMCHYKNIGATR

The target in experiment [10] is T3, Thromboxane A2 receptor. The experiment is classed as functional, cell-based. This is another data set of the same source.
Further: assay procedure not described here.

Chain of Acetylcholinesterase (P22303 whole entry): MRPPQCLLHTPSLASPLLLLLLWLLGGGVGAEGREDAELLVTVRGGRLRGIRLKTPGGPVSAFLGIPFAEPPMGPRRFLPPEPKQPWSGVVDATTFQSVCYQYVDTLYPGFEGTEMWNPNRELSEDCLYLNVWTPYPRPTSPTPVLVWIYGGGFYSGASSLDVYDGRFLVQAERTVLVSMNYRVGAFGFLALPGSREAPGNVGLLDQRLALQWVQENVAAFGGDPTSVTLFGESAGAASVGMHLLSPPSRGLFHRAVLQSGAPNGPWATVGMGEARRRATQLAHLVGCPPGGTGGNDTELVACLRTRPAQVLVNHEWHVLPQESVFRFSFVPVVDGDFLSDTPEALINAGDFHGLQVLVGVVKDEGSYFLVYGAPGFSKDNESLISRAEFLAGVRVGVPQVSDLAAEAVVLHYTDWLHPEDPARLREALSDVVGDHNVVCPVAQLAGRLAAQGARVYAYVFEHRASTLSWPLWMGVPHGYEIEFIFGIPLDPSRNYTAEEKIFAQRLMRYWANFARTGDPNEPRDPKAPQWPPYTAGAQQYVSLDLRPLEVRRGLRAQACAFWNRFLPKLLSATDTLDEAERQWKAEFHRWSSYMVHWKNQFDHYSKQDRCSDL
Chain of Prostaglandin G/H synthase 1 (P23219 whole entry): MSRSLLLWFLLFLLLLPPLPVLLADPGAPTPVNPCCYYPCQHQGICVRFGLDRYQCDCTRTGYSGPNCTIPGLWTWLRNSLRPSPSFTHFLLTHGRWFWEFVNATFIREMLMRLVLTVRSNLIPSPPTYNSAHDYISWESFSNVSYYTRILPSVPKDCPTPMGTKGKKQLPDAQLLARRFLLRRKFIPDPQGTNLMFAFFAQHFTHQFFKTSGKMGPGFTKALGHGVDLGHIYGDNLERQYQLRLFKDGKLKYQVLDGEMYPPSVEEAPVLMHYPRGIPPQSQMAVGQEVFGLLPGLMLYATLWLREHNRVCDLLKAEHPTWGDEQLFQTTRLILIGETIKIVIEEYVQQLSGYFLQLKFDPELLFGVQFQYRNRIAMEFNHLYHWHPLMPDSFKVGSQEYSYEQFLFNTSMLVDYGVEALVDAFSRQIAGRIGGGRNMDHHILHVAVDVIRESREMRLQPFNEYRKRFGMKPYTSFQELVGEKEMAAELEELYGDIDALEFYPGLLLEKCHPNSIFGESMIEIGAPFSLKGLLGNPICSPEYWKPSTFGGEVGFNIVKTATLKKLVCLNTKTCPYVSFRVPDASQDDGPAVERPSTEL
Chain of Mu-type opioid receptor (P35372 whole entry): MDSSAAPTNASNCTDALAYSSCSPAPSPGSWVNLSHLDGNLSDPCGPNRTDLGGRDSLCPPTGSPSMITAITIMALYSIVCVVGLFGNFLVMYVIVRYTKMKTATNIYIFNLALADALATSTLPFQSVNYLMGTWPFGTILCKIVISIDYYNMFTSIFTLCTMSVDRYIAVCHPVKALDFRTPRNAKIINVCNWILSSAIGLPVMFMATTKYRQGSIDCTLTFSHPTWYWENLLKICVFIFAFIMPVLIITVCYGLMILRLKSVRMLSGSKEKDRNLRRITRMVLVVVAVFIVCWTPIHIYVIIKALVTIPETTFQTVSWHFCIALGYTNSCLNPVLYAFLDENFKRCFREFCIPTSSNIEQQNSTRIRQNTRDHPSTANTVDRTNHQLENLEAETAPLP
Chain of Sodium-dependent dopamine transporter (Q01959 whole entry): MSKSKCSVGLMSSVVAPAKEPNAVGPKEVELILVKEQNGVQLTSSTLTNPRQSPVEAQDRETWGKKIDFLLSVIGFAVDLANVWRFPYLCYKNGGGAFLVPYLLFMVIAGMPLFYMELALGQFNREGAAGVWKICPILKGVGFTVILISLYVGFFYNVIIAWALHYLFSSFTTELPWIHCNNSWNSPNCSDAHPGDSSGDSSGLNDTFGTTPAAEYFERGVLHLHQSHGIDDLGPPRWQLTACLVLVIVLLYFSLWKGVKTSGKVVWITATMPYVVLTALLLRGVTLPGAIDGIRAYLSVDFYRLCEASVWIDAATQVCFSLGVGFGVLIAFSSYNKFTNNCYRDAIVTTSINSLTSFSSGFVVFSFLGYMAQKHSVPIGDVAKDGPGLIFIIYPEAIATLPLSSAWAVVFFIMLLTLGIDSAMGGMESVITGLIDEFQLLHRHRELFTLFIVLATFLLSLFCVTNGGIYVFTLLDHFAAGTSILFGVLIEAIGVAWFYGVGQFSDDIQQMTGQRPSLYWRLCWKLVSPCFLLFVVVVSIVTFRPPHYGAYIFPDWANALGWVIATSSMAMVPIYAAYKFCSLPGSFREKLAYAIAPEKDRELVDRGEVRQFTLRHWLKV
Chain of cGMP-inhibited 3',5'-cyclic phosphodiesterase 3A (Q14432 whole entry): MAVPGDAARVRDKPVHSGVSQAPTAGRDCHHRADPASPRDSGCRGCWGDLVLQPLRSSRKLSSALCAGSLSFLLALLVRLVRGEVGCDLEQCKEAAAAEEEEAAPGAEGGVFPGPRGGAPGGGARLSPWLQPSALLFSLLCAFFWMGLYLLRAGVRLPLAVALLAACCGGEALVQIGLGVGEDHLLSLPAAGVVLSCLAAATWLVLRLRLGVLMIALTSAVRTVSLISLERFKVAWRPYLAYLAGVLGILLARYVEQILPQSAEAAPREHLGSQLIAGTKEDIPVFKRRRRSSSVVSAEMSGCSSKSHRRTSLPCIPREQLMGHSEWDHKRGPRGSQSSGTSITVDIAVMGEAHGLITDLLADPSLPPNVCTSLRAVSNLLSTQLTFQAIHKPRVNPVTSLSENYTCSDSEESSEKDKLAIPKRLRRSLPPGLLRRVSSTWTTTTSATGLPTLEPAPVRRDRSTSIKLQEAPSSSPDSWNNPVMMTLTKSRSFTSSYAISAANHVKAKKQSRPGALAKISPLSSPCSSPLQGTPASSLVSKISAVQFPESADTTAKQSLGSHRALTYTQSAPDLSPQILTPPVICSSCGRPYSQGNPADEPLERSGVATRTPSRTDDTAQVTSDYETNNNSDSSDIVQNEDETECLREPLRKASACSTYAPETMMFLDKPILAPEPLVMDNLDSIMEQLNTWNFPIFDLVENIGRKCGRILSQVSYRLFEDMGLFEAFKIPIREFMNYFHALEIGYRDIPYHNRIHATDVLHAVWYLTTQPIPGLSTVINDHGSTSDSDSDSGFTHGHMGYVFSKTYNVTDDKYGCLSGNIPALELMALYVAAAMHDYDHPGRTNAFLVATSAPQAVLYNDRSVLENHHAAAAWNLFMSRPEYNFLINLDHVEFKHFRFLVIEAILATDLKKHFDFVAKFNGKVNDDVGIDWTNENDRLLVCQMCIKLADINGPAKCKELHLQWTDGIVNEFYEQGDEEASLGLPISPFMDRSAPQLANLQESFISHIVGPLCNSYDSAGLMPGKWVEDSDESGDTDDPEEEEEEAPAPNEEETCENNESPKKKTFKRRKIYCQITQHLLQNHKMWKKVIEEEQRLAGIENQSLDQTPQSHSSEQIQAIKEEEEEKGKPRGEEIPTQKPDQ
Chain of Histamine H3 receptor (Q9Y5N1 whole entry): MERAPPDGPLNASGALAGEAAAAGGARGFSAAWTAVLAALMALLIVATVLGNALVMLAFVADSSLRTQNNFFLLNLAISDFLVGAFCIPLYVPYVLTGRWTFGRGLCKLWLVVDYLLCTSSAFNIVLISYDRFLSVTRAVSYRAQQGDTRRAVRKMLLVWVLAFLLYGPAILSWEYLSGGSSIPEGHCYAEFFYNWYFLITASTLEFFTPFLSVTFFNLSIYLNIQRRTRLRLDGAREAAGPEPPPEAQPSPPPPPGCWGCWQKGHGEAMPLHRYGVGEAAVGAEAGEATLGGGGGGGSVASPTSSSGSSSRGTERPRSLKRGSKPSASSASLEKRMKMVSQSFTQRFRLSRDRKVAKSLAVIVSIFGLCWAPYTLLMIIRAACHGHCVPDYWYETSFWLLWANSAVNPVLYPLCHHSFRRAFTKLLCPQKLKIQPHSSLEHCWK
Chain of D(1A) dopamine receptor (P21728 whole entry): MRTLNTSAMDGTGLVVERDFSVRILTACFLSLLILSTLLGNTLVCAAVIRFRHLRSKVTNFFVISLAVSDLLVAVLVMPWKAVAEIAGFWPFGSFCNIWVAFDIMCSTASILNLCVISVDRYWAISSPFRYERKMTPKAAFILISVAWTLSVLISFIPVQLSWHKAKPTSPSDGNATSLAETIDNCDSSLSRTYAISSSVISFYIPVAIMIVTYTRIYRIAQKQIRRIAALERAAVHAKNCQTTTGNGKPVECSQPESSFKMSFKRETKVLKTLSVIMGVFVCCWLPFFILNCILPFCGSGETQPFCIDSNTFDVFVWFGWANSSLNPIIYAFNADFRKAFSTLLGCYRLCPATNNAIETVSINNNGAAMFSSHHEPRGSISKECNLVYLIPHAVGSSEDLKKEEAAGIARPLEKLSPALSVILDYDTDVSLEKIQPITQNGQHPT
Chain of Sodium-dependent serotonin transporter (P31645 whole entry): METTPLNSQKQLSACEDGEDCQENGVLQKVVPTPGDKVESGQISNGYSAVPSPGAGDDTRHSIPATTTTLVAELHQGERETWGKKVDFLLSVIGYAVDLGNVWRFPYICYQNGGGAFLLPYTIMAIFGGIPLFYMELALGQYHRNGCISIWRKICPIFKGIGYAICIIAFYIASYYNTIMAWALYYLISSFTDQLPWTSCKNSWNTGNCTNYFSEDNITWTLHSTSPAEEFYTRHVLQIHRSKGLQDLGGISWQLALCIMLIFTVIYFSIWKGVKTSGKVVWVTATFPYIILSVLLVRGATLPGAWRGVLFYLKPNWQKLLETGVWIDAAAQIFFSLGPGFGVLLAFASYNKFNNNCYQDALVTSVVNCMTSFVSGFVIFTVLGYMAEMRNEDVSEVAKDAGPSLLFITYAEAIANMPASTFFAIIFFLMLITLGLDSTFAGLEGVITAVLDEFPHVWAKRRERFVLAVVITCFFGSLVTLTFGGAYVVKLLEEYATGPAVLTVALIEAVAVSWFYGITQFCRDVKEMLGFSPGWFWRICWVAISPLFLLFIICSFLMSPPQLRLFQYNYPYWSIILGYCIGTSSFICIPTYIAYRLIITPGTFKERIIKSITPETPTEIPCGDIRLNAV

Usually AC50 stands for the concentration at which the activity in the assay is half-maximal. With `CC(=O)OCC[N+](C)(C)C` [ACETYLCHOLINE], the AC50 (at Prothrombin; in experiment [1]; in experiment [2]; at Acetylcholinesterase; in [3]; in experiment [4]) was more than 30 µM throughout. Also, the AC50 was more than 30 µM on D(1A) dopamine receptor; more than 30 µM at Mu-type opioid receptor; 0.34 µM on Thromboxane A2 receptor [5]; more than 30 µM in experiment [6]; more than 30 µM at Histamine H3 receptor; more than 30 µM in experiment [7]. Moreover, the AC50 in experiment [8] is more than 30 µM.
As for `CNC(=O)C[C@@H](N)C(=O)N[C@@H](C(=O)N[C@@H]1C(=O)N2[C@@H]1SC(C)(C)[C@@H]2C(=O)O)c1ccc(O)cc1` [ASPOXICILLIN], the AC50 (in experiment [9]; on Prothrombin; in experiment [1]; in experiment [2]; at Thromboxane A2 receptor [10]; on Acetylcholinesterase) was more than 30 µM each time. Further, the AC50 (in experiment [3]; in experiment [4]; at D(1A) dopamine receptor; on Mu-type opioid receptor; on Thromboxane A2 receptor [5]; in [6]) was more than 30 µM in each case. Also, the AC50 (at Histamine H3 receptor; in experiment [8]) was more than 30 µM throughout.
`Cc1nnc(SCC2=C(C(=O)O)N3C(=O)[C@@H](NC(=O)Cn4cc(Cl)c(=O)c(Cl)c4)[C@H]3SC2)s1` [CEFAZEDONE]: the AC50 (in experiment [9]; at Prothrombin; in experiment [1]; in experiment [2]; on Thromboxane A2 receptor [10]; at Acetylcholinesterase) was more than 30 µM throughout. In addition, the AC50 was 8.23 µM in experiment [3]; more than 30 µM in experiment [4]; more than 30 µM at D(1A) dopamine receptor; more than 30 µM on Mu-type opioid receptor; more than 30 µM on Thromboxane A2 receptor [5]; more than 30 µM in experiment [6]. The AC50 (at Histamine H3 receptor; in experiment [8]) was more than 30 µM throughout.
As to `C[C@@H]1C[C@H]2[C@@H]3C[C@H](F)C4=CC(=O)C=C[C@]4(C)[C@@]3(Cl)[C@@H](O)C[C@]2(C)[C@H]1C(=O)COC(=O)C(C)(C)C` [CLOCORTOLONE PIVALATE], the AC50 is more than 10 µM in [9]; more than 30 µM at Prothrombin; more than 30 µM in experiment [1]; more than 30 µM in experiment [2]; more than 30 µM at Thromboxane A2 receptor [10]; more than 30 µM on Acetylcholinesterase. The AC50 was more than 30 µM in experiment [3]; more than 30 µM in [4]; more than 30 µM at D(1A) dopamine receptor; more than 10 µM at Mu-type opioid receptor; more than 30 µM on Thromboxane A2 receptor [5]; more than 30 µM in experiment [6]. Moreover, the AC50 was more than 30 µM on Histamine H3 receptor and more than 10 µM in [8].
With `O=P(O)(O)C(Cl)(Cl)P(=O)(O)O` [CLODRONIC ACID], the AC50 (in [9]; at Prothrombin; in experiment [1]; in experiment [2]; on Thromboxane A2 receptor [10]; on Acetylcholinesterase) was more than 30 µM each time. Besides, the AC50 (in experiment [3]; in experiment [4]; on D(1A) dopamine receptor; on Mu-type opioid receptor; on Thromboxane A2 receptor [5]; in experiment [6]) was more than 30 µM throughout. Also, the AC50 (on Histamine H3 receptor; in experiment [8]) was more than 30 µM throughout.
In the case of `Nc1ccncc1` [DALFAMPRIDINE], the AC50 (in experiment [9]; on Prothrombin; in experiment [1]; in experiment [2]; on Thromboxane A2 receptor [10]; on Acetylcholinesterase) was more than 30 µM in each case. The AC50 (in experiment [3]; in experiment [4]; at D(1A) dopamine receptor; on Mu-type opioid receptor; on Thromboxane A2 receptor [5]; in [6]) was more than 30 µM in each case. Further, the AC50 (on Histamine H3 receptor; in experiment [8]) was more than 30 µM each time.
`CC(N)CCCC(C)(C)O` (centres undefined) [HEPTAMINOL]: the AC50 (in experiment [9]; on Prothrombin; in experiment [1]; in experiment [2]; at Thromboxane A2 receptor [10]; at Acetylcholinesterase) was more than 30 µM each time. The AC50 (in experiment [3]; in experiment [4]; on D(1A) dopamine receptor; at Mu-type opioid receptor; at Thromboxane A2 receptor [5]; in experiment [6]) was more than 30 µM throughout. The AC50 (at Histamine H3 receptor; in experiment [8]) was more than 30 µM each time.
In the case of `CC1(C)S[C@@H]2[C@H](NC(=O)[C@H](NC(=O)N3CCN(S(C)(=O)=O)C3=O)c3ccccc3)C(=O)N2[C@H]1C(=O)O` [MEZLOCILLIN], the AC50 (in experiment [9]; at Prothrombin; in experiment [1]; in experiment [2]; on Thromboxane A2 receptor [10]; on Acetylcholinesterase) was more than 30 µM throughout. Besides, the AC50 (in experiment [3]; in experiment [4]; at D(1A) dopamine receptor; on Mu-type opioid receptor; on Thromboxane A2 receptor [5]; in experiment [6]) was more than 30 µM in each case. The concentration at half-maximal activity (AC50) (at Histamine H3 receptor; in [8]) was more than 30 µM in each case.
With `CC(c1ccc(Cl)c(Cl)c1)N1N=C(N)CC1=O` (centres undefined) [MUZOLIMINE], the AC50 (in experiment [9]; at Prothrombin; in [1]; in experiment [2]; at Thromboxane A2 receptor [10]; at Acetylcholinesterase) was more than 30 µM each time. For the same compound, the AC50 (in [3]; in experiment [4]; at D(1A) dopamine receptor; on Mu-type opioid receptor; at Thromboxane A2 receptor [5]; in experiment [6]) was more than 30 µM each time. For the same compound, the AC50 (on Histamine H3 receptor; in experiment [8]) was more than 30 µM throughout.
As for `CO[C@H]1/C=C/O[C@@]2(C)Oc3c(C)c(O)c4c(O)c(cc(O)c4c3C2=O)NC(=O)/C(C)=C\C=C\[C@H](C)[C@H](O)[C@@H](C)[C@@H](O)[C@@H](C)[C@H](OC(C)=O)[C@@H]1C` [RIFAMYCIN], the AC50 (in [9]; on Prothrombin; in [1]; in [2]; at Acetylcholinesterase; in [3]) was more than 30 µM throughout. In addition, the concentration at half-maximal activity (AC50) in [4] was 8.13 µM; at D(1A) dopamine receptor, more than 30 µM; at Mu-type opioid receptor it was more than 30 µM; at Thromboxane A2 receptor [5] it was 8.77 µM; in experiment [6], more than 30 µM; on Histamine H3 receptor it was more than 30 µM. The AC50 in experiment [7] and in experiment [8] was more than 30 µM each time.
